The supplement of paper PMC10307832

Tests used:
Assay in all cases: relative viability (nuclei count vs DMSO), 5 days (fraction); higher = more cells survive
[1] = compound: CCCS(=O)(=O)Nc1ccc(F)c(C(=O)c2c[nH]c3ncc(-c4ccc(Cl)cc4)cc23)c1F [Vemurafenib] + COc1cc2c(Oc3ccc(NC(=O)C4(C(=O)Nc5ccc(F)cc5)CC4)cc3F)ccnc2cc1OCCCN1CCOCC1 [Foretinib] (partner 0.25 µM)
Procedure, shortened: (§1)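 Each reported value is a median over duplicate plates. It expresses relative viability: treated-well nuclei count divided by vehicle-well nuclei count. Lung cancer cell lines in 1536-well plates were dosed by pin tool a day after seeding, alone with one drug or with a fixed anchor-drug dose plus five library-drug doses (not always all listed) in √10 steps, and nuclei were counted after 5 days.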

[2] = compound: CCCS(=O)(=O)Nc1ccc(F)c(C(=O)c2c[nH]c3ncc(-c4ccc(Cl)cc4)cc23)c1F [Vemurafenib] + NC(=O)Nc1cc(-c2cccc(F)c2)sc1C(=O)N[C@H]1CCCNC1 [AZD7762] (partner 0.2 µM)
Procedure, shortened: as §1

[3] = compound: COc1cccc2cc(-c3nc([C@H]4CC[C@H](C(=O)O)CC4)n4ncnc(N)c34)[nH]c12 [OSI-027] + C[C@@H](Oc1cc(-c2cnn(C3CCNCC3)c2)cnc1N)c1c(Cl)ccc(F)c1Cl [Crizotinib] (partner 1 µM)
Procedure, shortened: as §1

[4] = compound: CCCS(=O)(=O)Nc1ccc(F)c(C(=O)c2c[nH]c3ncc(-c4ccc(Cl)cc4)cc23)c1F [Vemurafenib] + CS(=O)(=O)N1CCN(Cc2cc3nc(-c4cccc5[nH]ncc45)nc(N4CCOCC4)c3s2)CC1 [Pictilisib] (partner 1 µM)
Procedure, shortened: as §1

Cell Line	relative viability ([1]; first compound 0.03162 µM)	relative viability ([1]; first compound 0.1 µM)	relative viability ([1]; first compound 0.3162 µM)	relative viability ([1]; first compound 1 µM)	relative viability ([2]; first compound 0.03162 µM)	relative viability ([2]; first compound 0.1 µM)	relative viability ([2]; first compound 0.3162 µM)	relative viability ([2]; first compound 1 µM)	relative viability ([3]; first compound 0.01 µM)	relative viability ([3]; first compound 0.03162 µM)	relative viability ([3]; first compound 0.1 µM)	relative viability ([3]; first compound 0.3162 µM)	relative viability ([3]; first compound 1 µM)	relative viability ([4]; first compound 0.03162 µM)	relative viability ([4]; first compound 0.1 µM)	relative viability ([4]; first compound 0.3162 µM)	relative viability ([4]; first compound 1 µM)
201T	0.984	1	1.06	1.1	0.652	0.515	0.604	0.617	1.05	1.11	1.08	1.03	0.847	0.651	0.67	0.702	0.677
A549	0.945	0.872	0.986	0.919	–	–	–	–	0.782	0.711	0.704	0.45	0.167	0.532	0.43	0.607	0.453
A-427	1.01	0.951	1.06	1.18	0.696	0.709	–	0.792	0.91	0.821	0.866	0.673	0.374	0.751	0.754	0.564	0.738
ABC-1	1.05	1.16	1.19	1.05	0.668	0.775	0.622	0.813	1.23	0.881	1.1	0.957	0.47	0.751	0.536	0.658	0.753
BEN	0.534	0.575	–	0.621	0.566	0.761	0.392	0.638	0.921	0.545	0.612	0.34	0.393	0.529	0.593	0.358	0.431
CAL-12T	1.15	0.828	1.33	1.09	0.594	0.617	0.535	0.593	0.567	0.568	0.62	0.718	0.487	0.407	–	–	0.406
COR-L23	0.864	0.92	0.854	0.957	–	–	–	–	0.688	0.549	0.674	0.985	0.4	0.684	0.615	0.598	0.544
COR-L 105	1.04	–	–	0.978	–	–	–	–	0.754	0.741	0.766	0.894	0.415	0.467	–	0.406	0.368
Calu-6	0.841	0.855	0.885	0.757	–	–	–	–	0.806	0.726	0.765	0.626	0.625	0.888	0.902	0.741	0.822
ChaGo-K-1	0.885	0.938	0.85	0.901	0.818	0.853	0.738	0.882	1.38	1.02	1.2	0.997	0.922	0.657	0.587	–	0.625
EBC-1	0.108	0.0915	0.104	0.11	–	–	–	–	0.21	0.21	0.183	0.184	0.164	0.36	0.335	0.335	0.36
EKVX	0.617	–	0.745	0.703	0.689	–	0.683	0.6	0.92	0.816	1.03	0.822	0.513	0.446	–	0.501	0.451
EMC-BAC-2	1.06	0.862	0.832	1.03	1.06	1.09	0.851	1.05	0.752	0.786	0.737	0.683	0.416	0.46	0.474	0.454	0.544
EPLC-272H	0.614	0.435	0.873	0.685	0.251	0.166	0.156	0.218	1.05	0.872	0.944	0.697	0.787	0.277	0.278	0.295	0.336
H3255	0.945	–	0.827	0.96	0.843	–	0.723	0.949	0.842	0.838	0.76	0.886	0.587	0.474	–	0.48	0.452
HARA	0.858	0.634	0.945	0.559	0.0775	0.292	0.168	0.37	1.07	0.85	0.999	1.09	0.407	0.41	–	0.459	0.486
HCC-15	0.941	1.09	–	1.05	1.05	1.22	1.17	1.1	0.933	0.712	0.789	0.732	0.482	0.653	0.773	0.727	0.578
HCC-44	–	–	–	–	0.945	0.975	1.2	1.03	0.819	0.794	0.817	0.737	0.343	0.443	0.5	0.478	0.646
HCC-78	0.59	0.476	0.7	0.552	0.513	0.493	0.65	0.777	0.289	0.322	0.33	0.274	0.185	0.222	0.214	0.429	0.185
HCC-366	0.988	0.922	1.01	1	0.305	0.213	–	0.259	0.817	0.315	0.52	0.415	0.119	0.137	0.15	–	0.163
HCC-827	0.911	–	1.12	1.04	0.234	–	0.198	0.265	0.924	0.969	0.915	1.01	0.649	0.791	–	1.03	0.981
